pIC50: −log10 of the molar value. Where two headings read alike, the source gives them in different places.
Legend:
[1] = target: T1, complement C5a receptor 1 (C5aR1) (Homo sapiens, UniProt P21730); assay: β-arrestin recruitment via C5aR1 activation in live CHO-K1 cells (PathHunter), agonist mode; assay type: cell-based
T1 construct: β-galactosidase fragment (PathHunter enzyme complementation); host or cells: CHO-K1 (PathHunter CHO-K1 C5aR1 β-arrestin cell line)
T1 sequence (P21730 1-350): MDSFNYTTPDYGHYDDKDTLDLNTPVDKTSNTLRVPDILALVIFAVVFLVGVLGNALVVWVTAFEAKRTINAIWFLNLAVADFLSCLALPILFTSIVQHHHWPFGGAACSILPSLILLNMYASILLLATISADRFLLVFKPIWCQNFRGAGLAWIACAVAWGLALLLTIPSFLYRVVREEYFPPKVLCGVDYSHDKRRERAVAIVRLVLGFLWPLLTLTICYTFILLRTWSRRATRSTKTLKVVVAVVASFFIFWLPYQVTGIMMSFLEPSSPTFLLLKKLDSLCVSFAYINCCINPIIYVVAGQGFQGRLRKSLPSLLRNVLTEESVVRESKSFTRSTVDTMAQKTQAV
Outline: (§1)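 Live CHO-K1 cells carry two galactosidase enzyme fragments, one fused to β-arrestin and one to C5aR1, so that β-arrestin recruitment restores enzyme activity. Agonist mode tests compounds alone. Antagonist mode tests them against recombinant hC5a at EC90, and IC50 values are reported in binned ranges.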

[2] = target: T1, complement C5a receptor 1 (C5aR1); assay: β-arrestin recruitment via C5aR1 activation in live CHO-K1 cells (PathHunter), antagonist mode; assay type: cell-based; settings: antagonist mode; recombinant hC5a (EC90) as competing natural agonist; live CHO-K1 cells; read-out: [Antagonist] B-arrestin2 recruitment: Average IC50
Outline: as §1

Row | SMILES | [Agonist] B-arrestin2 recruitment: Average EC50 (nM) ([1]; at 10 μM) | pIC50 [2] | [Agonist] B-arrestin2 recruitment: Average EC50 (nM) [1]
1 | Cc1cccc(F)c1[C@@H]1CC[C@@H](c2cc3nccnc3n(Cc3ncccc3C(F)(F)F)c2=O)C1 [200D, 7-((1R,3R)-3-(2-Fluoro-6-methylphenyl)cyclopentyl)-5-((3-(trifluoromethyl)pyridin-2-yl)methyl)pyrido[2,3-b]pyrazin-6(5H)-one] | Non-Active at 10 μM | > 6.30 | –
2 | Cc1ccc2cc([C@H]3C[C@H](c4c(C)cccc4F)C3)c(=O)n(Cc3ncccc3C(F)(F)F)c2n1 [243A, 3-((1r,3r)-3-(2-Fluoro-6-methylphenyl)cyclobutyl)-7-methyl-1-((3-(trifluoromethyl)pyridin-2-yl)methyl)-1,8-naphthyridin-2(1H)-one] | – | > 6.30 | Non-Active
3 | Cc1ccc2cc([C@H]3C[C@@H](c4c(C)cccc4F)C3)c(=O)n(Cc3ncccc3C(F)(F)F)c2n1 [243B, 3-((1s,3s)-3-(2-Fluoro-6-methylphenyl)cyclobutyl)-7-methyl-1-((3-(trifluoromethyl)pyridin-2-yl)methyl)-1,8-naphthyridin-2(1H)-one] | – | > 6.30 | Non-Active
4 | Cc1cccc(F)c1N1CCC(c2c(C)c3nccnc3n(Cc3ccccc3C(F)(F)F)c2=O)CC1 [compound 2, 7-(1-(2-Fluoro-6-methylphenyl)piperidin-4-yl)-8-methyl-5-(2-(trifluoromethyl)benzyl)pyrido[2,3-b]pyrazin-6(5H)-one] | – | 5.30 to 6.30 | Non-Active
5 | COc1nccnc1Cn1c(=O)c(C2CCN(c3c(C)cccc3F)CC2)c(C)c2nccnc21 [compound 3, 7-(1-(2-Fluoro-6-methylphenyl)piperidin-4-yl)-5-((3-methoxypyrazin-2-yl)methyl)-8-methyl pyrido[2,3-b]pyrazin-6(5H)-one] | – | 5.30 to 6.30 | Non-Active
6 | Cc1c(C2CCN(c3ccccc3C(F)(F)F)CC2)c(=O)n(Cc2ccccc2F)c2nccnc12 [compound 7, 5-(2-Fluorobenzyl)-8-methyl-7-(1-(2-(trifluoromethyl)phenyl)piperidin-4-yl)pyrido[2,3-b]pyrazin-6(5H)-one] | – | > 6.30 | Non-Active
7 | Cc1nccnc1N1CCC(c2cc3nccnc3n(Cc3ccccc3C(F)(F)F)c2=O)CC1 [compound 8, 7-(1-(3-Methylpyrazin-2-yl)piperidin-4-yl)-5-(2-(trifluoromethyl)benzyl)pyrido[2,3-b]pyrazin-6(5H)-one] | – | 4.00 to 5.30 | Non-Active
8 | COc1nccnc1N1CCC(c2cc3nccnc3n(Cc3ccccc3C(F)(F)F)c2=O)CC1 [compound 9, 7-(1-(3-Methoxypyrazin-2-yl)piperidin-4-yl)-5-(2-(trifluoromethyl)benzyl)pyrido[2,3-b]pyrazin-6(5H)-one] | – | 4.00 to 5.30 | Non-Active
9 | O=c1c(C2CCN(c3ccccc3C(F)(F)F)CC2)cc2nccnc2n1Cc1ccccc1F [compound 10, 5-(2-fluorobenzyl)-7-(1-(2-(trifluoromethyl)phenyl)piperidin-4-yl)pyrido[2,3-b]pyrazin-6(5H)-one] | – | > 6.30 | Non-Active
10 | Cc1c(C2CCN(c3cccnc3C(F)(F)F)CC2)c(=O)n(Cc2ccccc2F)c2nccnc12 [compound 11, 5-(2-Fluorobenzyl)-8-methyl-7-(1-(2-(trifluoromethyl)pyridin-3-yl)piperidin-4-yl)pyrido[2,3-b]pyrazin-6(5H)-one] | – | < 4.00 | Non-Active
11 | Cc1cccc(F)c1N1CCC(c2cc3nccnc3n(Cc3ccc(C(F)(F)F)nc3)c2=O)CC1 [compound 14, 7-(1-(2-Fluoro-6-methylphenyl)piperidin-4-yl)-5-((6-(trifluoromethyl)pyridin-3-yl)methyl)pyrido[2,3-b]pyrazin-6(5H)-one] | – | < 4.00 | Non-Active
12 | Cc1cccc(F)c1N1CCC(c2cc3nccnc3n(Cc3ccc(C(F)(F)F)cn3)c2=O)CC1 [compound 15, 7-(1-(2-Fluoro-6-methylphenyl)piperidin-4-yl)-5-((5-(trifluoromethyl)pyridin-2-yl)methyl)pyrido[2,3-b]pyrazin-6(5H)-one] | – | < 4.00 | Non-Active
13 | Cc1cccc(F)c1N1CCC(c2cc3nccnc3n(Cc3cnccc3C(F)(F)F)c2=O)CC1 [compound 16, 7-(1-(2-Fluoro-6-methylphenyl)piperidin-4-yl)-5-((4-(trifluoromethyl)pyridin-3-yl)methyl) pyrido[2,3-b]pyrazin-6(5H)-one] | – | > 6.30 | Non-Active
14 | O=c1c(C2CCN(c3cccnc3C(F)(F)F)CC2)cc2nccnc2n1Cc1ccccc1F [compound 18, 5-(2-Fluorobenzyl)-7-(1-(2-(trifluoromethyl)pyridin-3-yl)piperidin-4-yl)pyrido[2,3-b]pyrazin-6(5H)-one] | – | < 4.00 | Non-Active

Now from value to compound:

Row | [Agonist] B-arrestin2 recruitment: Average EC50 (nM) ([1]; at 10 μM) | pIC50 [2] | [Agonist] B-arrestin2 recruitment: Average EC50 (nM) [1] | SMILES
15 | – | 5.30 to 6.30 | Non-Active | Cc1cccc(F)c1N1CCC(c2c(C)c3nccnc3n(Cc3nccnc3OCC(F)(F)F)c2=O)CC1 [compound 4, 7-(1-(2-Fluoro-6-methylphenyl)piperidin-4-yl)-8-methyl-5-((3-(2,2,2-trifluoroethoxy)pyrazin-2-yl)methyl)pyrido[2,3-b]pyrazin-6(5H)-one]
16 | – | 5.30 to 6.30 | Non-Active | COc1nccnc1Cn1c(=O)c(C2CCN(c3c(C)cccc3F)CC2)cc2nccnc21 [compound 5, 7-(1-(2-Fluoro-6-methylphenyl)piperidin-4-yl)-5-((3-methoxypyrazin-2-yl)methyl)pyrido[2,3-b]pyrazin-6(5H)-one]
17 | – | > 6.30 | Non-Active | Cc1cccc(F)c1N1CCC(c2cc3nccnc3n(Cc3nccnc3OCC(F)(F)F)c2=O)CC1 [compound 6, 7-(1-(2-Fluoro-6-methylphenyl)piperidin-4-yl)-5-((3-(2,2,2-trifluoroethoxy)pyrazin-2-yl)methyl)pyrido[2,3-b]pyrazin-6(5H)-one]
18 | – | > 6.30 | Non-Active | Cc1cccc(F)c1N1CCC(c2cc3nccnc3n(Cc3nccnc3C(F)(F)F)c2=O)CC1 [compound 12, 7-(1-(2-Fluoro-6-methylphenyl)piperidin-4-yl)-5-((3-(trifluoromethyl)pyrazin-2-yl)methyl)pyrido[2,3-b]pyrazin-6(5H)-one]
19 | – | > 6.30 | Non-Active | Cc1cccc(F)c1N1CCC(c2cc3nccnc3n(Cc3cccnc3C(F)(F)F)c2=O)CC1 [compound 13, 7-(1-(2-Fluoro-6-methylphenyl)piperidin-4-yl)-5-((2-(trifluoromethyl)pyridin-3-yl)methyl)pyrido[2,3-b]pyrazin-6(5H)-one]
20 | – | 5.30 to 6.30 | Non-Active | Cc1cccc(F)c1N1CCC(c2cc3nccnc3n(Cc3ccncc3C(F)(F)F)c2=O)CC1 [compound 17, 7-(1-(2-Fluoro-6-methylphenyl)piperidin-4-yl)-5-((3-(trifluoromethyl)pyridin-4-yl)methyl) pyrido[2,3-b]pyrazin-6(5H)-one]
21 | – | 5.30 to 6.30 | Non-Active | Cc1cccc(F)c1N1CCC(c2cc3nccnc3n(Cc3nccnc3C)c2=O)CC1 [compound 20, 7-(1-(2-Fluoro-6-methylphenyl)piperidin-4-yl)-5-((3-methylpyrazin-2-yl)methyl)pyrido[2,3-b]pyrazin-6(5H)-one]
22 | – | > 6.30 | Non-Active | Cc1cccc(F)c1N1CCC(c2cc3nccnc3n(Cc3ncccc3C(F)(F)F)c2=O)CC1 [compound 21, 7-(1-(2-Fluoro-6-methylphenyl)piperidin-4-yl)-5-((3-(trifluoromethyl)pyridin-2-yl)methyl)pyrido[2,3-b]pyrazin-6(5H)-one]
23 | – | 5.30 to 6.30 | Non-Active | Cc1cccc(F)c1N1CCC(c2c(C)c3nccnc3n(Cc3nccnc3C(F)(F)F)c2=O)CC1 [compound 22, 7-(1-(2-Fluoro-6-methylphenyl)piperidin-4-yl)-8-methyl-5-((3-(trifluoromethyl)pyrazin-2-yl)methyl)pyrido[2,3-b]pyrazin-6(5H)-one]
24 | – | 5.30 to 6.30 | Non-Active | Cc1cccc(F)c1N1CCC(c2cc3nccnc3n(Cc3nccnc3C(F)(F)F)c2=O)C1 (centres unmarked) [compound 23, 7-(1-(2-Fluoro-6-methylphenyl)pyrrolidin-3-yl)-5-((3-(trifluoromethyl)pyrazin-2-yl)methyl) pyrido[2,3-b]pyrazin-6(5H)-one]
25 | – | 5.30 to 6.30 | Non-Active | Cc1cccc(F)c1N1CCN(c2cc3nccnc3n(Cc3nccnc3C(F)(F)F)c2=O)CC1 [compound 24, 7-(4-(2-Fluoro-6-methylphenyl)piperazin-1-yl)-5-((3-(trifluoromethyl)pyrazin-2-yl)methyl)pyrido[2,3-b]pyrazin-6(5H)-one]

From patent US20260317320A1, “C5AR1 ANTAGONISTS AND USES THEREOF” (Vanqua Bio, Inc., priority 2022, published 2026)
